± gives the expanded uncertainty stated by the source.
Conditions: for viscosity / speed of sound / mass density: 102 kPa, Liquid; for viscosity: Concentric cylinders viscometry; for speed of sound: Single path-length method; for mass density: Vibrating tube method; for surface tension liquid-gas: Pendant drop shape

CCCCCCCCCCCC [dodecane]
Conditions	mass density [kg/m3]	speed of sound [m/s]	surface tension liquid-gas [mN/m]	viscosity [mPa·s]
293.15 K	748.73 ± 0.7	1297.7 ± 0.7	–	1.49 ± 0.01
294.6 K	–	–	25 ± 0.5	–
298.15 K	745.11 ± 0.7	–	–	1.36 ± 0.01
303.15 K	741.77 ± 0.7	1259 ± 0.7	–	1.26 ± 0.01
313.15 K	734.87 ± 0.7	1221.1 ± 0.7	–	1.06 ± 0.01
323.15 K	726.88 ± 0.7	1183.9 ± 0.7	–	0.925 ± 0.012
333.15 K	719.53 ± 0.7	1147.6 ± 0.7	–	0.795 ± 0.012

CCC1CCCCC1 [ethylcyclohexane]
Conditions	mass density [kg/m3]	speed of sound [m/s]	surface tension liquid-gas [mN/m]	viscosity [mPa·s]
293.15 K	787.98 ± 0.2	1292.9 ± 0.6	–	0.858 ± 0.012
295.6 K	–	–	25.3 ± 0.5	–
303.15 K	779.91 ± 0.2	1249.9 ± 0.6	–	0.725 ± 0.011
313.15 K	771.79 ± 0.2	1208 ± 0.6	–	0.649 ± 0.011
323.15 K	763.6 ± 0.21	1166.9 ± 0.6	–	0.572 ± 0.011
333.15 K	755.36 ± 0.21	1126.9 ± 0.6	–	0.504 ± 0.011

CCCCCCCCCCCCCCCC [hexadecane]
Conditions	mass density [kg/m3]	speed of sound [m/s]	surface tension liquid-gas [mN/m]	viscosity [mPa·s]
293.15 K	773.37 ± 0.32	1357.4 ± 0.6	–	3.47 ± 0.02
296.1 K	–	–	26.9 ± 0.7	–
298.15 K	769.89 ± 0.32	1338.6 ± 0.6	–	3.06 ± 0.02
303.15 K	766.43 ± 0.32	1319.7 ± 0.6	–	2.76 ± 0.02
313.15 K	759.51 ± 0.32	1282.9 ± 0.6	–	2.23 ± 0.02
323.15 K	752.6 ± 0.32	1247.1 ± 0.6	–	1.86 ± 0.01
333.15 K	745.69 ± 0.32	1212.2 ± 0.6	–	1.56 ± 0.01

CC1CCCCC1 [methylcyclohexane]
Conditions	mass density [kg/m3]	speed of sound [m/s]	surface tension liquid-gas [mN/m]	viscosity [mPa·s]
291.1 K	–	–	23.7 ± 0.5	–
293.15 K	769.3 ± 0.2	1236.5 ± 0.6	–	0.74 ± 0.011
298.15 K	764.99 ± 0.21	1214.5 ± 0.6	–	0.685 ± 0.011
303.15 K	760.64 ± 0.21	1192.3 ± 0.6	–	0.633 ± 0.011
313.15 K	751.92 ± 0.21	1149.2 ± 0.6	–	0.572 ± 0.011
323.15 K	743.13 ± 0.21	1106.9 ± 0.6	–	0.489 ± 0.011
333.15 K	734.25 ± 0.21	1065.7 ± 0.6	–	0.44 ± 0.011

— the NIST ThermoML archive (doi:10.1021/acs.jced.8b00008)
